From a melting point compilation (Tetko et al.; mined from patent text by program, amines drawn as free bases though some values may be those of a salt)

Row | melting point [°C] | SMILES
1 | 58 to 60 | OCC=Cc1ccsc1
2 | 226 to 228 | CC(=O)Nc1ccc(OCC2CCN(c3ccncc3)CC2)cc1
3 | 158 to 160 | Cn1cc(CC(SSC(Cc2cn(C)c3ccccc23)C(=O)O)C(=O)O)c2ccccc21 (stereo not drawn)
4 | 154 to 155 | COc1ccc(-c2nn(Cc3ccc(F)cc3)c(=O)cc2-c2ccncc2)cc1
5 | 58 to 66 | O=C(O)CCCCCCCCC1=CC(O)CC1=O (stereo not drawn)
6 | 90 to 94 | CCCCN(Cc1ccc(-c2ccccc2-c2nnnn2C(c2ccccc2)(c2ccccc2)c2ccccc2)cc1)c1ncccc1C(=O)OCC
7 | 50 to 51 | CCCNC(=O)n1nc(Oc2ccc(C(F)(F)F)cc2[N+](=O)[O-])cc1C
8 | 65 to 66 | CCCCCCC(C(=O)O)c1cccc(Oc2ccccc2C)c1O (stereo not drawn)
9 | 155 to 159 | c1csc(-c2ccc3nncn3n2)c1
10 | 110 to 117 | COc1ccc(/C=C/c2cc(/C=C/c3ccc4cc[nH]c4c3)n[nH]2)cc1OCc1ccccn1
11 | 98 to 100 | CC(Oc1ccc(Oc2ccc(Cl)cc2)cc1)C(=O)N1CCCO1 (stereo not drawn)
12 | 252 to 253 | CCOC(=O)c1cn(CC)c2nc3ccccc3n2c1=O
13 | 148 to 149 | O=C(N[C@H](Cc1cccc(OC(F)(F)C(F)F)c1)[C@@H](O)c1ccc(F)nc1)c1ccc(F)c2ccccc12 (racemic)
14 | 149 to 152 | CC(=O)OC1=C([C@H]2CC[C@H](c3ccc(Cl)cc3)CC2)C(=O)c2ccccc2C1=O
15 | 73 to 76 | CC(C)(C)c1cccc2c1OC(CNC(=O)OCc1ccccc1)C2 (stereo not drawn)
16 | 109 to 110 | CCCNC(=O)C1(CCCCc2ccc([N+](=O)[O-])cc2)c2ccccc2-c2ccccc21
17 | 148 to 150 | CCN(CC)CC(O)c1c[nH]c2c1ccc1c3ccccc3[nH]c12 (stereo not drawn)
18 | 258 | O=C(c1ccc(O)c(Cc2ccc(=O)[nH]n2)c1)c1c(Cl)cc(Cl)cc1Cl
19 | 128 to 130 | CC[C@H](C1CC1)n1cc(Cl)nc(N2CCc3cc(OC)c(F)c(Cl)c32)c1=O
20 | 261 to 263 | CCCOc1ccc(S(=O)(=O)Nc2ccc3[nH]ncc3c2)cc1-c1nc2cc3nc[nH]c3cc2c(=O)[nH]1
21 | 145 to 147 | O=C(Nc1ccc(-n2nc(C(F)(F)F)cc2C(F)(F)F)cc1)c1cccnc1Cl
22 | 126 to 134 | CC(C(=O)NCC(F)(F)C(F)(F)F)C(=O)NC1C(=O)N(C)c2cc(F)ccc2OC1C (stereo not drawn)
23 | 146 to 148 | CC(=O)N(C)C1CCC(O)(c2ccc(Cl)c(Cl)c2)c2ccccc21 (stereo not drawn)
24 | 178 to 179 | CC(C)(O)Cn1c(CON)nc2c(N)nc3ccccc3c21

Row | melting point [°C] | SMILES
25 | 61 to 65 | CCCCOC(=O)N[C@@H](CC(N)=O)C(=O)N[C@@H](Cc1ccccc1)[C@H](O)C(=O)N1CCC[C@H]1C(=O)NC(C)(C)C
26 | 128 to 131 | COc1ccc(-c2cc(CN)c(=O)n(Cc3ccc(Cl)cc3)n2)cc1F
27 | 236 to 238 | O=C1c2ccccc2-c2c1cccc2-c1nc2ccncc2[nH]1
28 | 179 to 181 | Nc1cc(C(=O)O)cc(NCc2ccccc2)c1-c1ccccc1
29 | 173 | Nc1ccc(C(=O)CCCN2CCC(OC(=O)c3cc(Cl)c(N)c4c3OCC4)CC2)cc1N
30 | 68 to 69 | Cc1nc(-c2ccc(OC(F)(F)F)cc2)ccc1CO
31 | 195 to 197 | Cc1cc(C=NN2CCNC2=O)no1
32 | 248 | CCOC(=O)C1=C(C)Nc2nc(N3CCOCC3)nc(N3CCOCC3)c2C1c1ccccc1C#N (stereo not drawn)
33 | 80 to 88 | CCCCCCCCCCCCn1nnnc1NC(=O)Nc1c(C(C)C)cccc1C(C)C
34 | 244 to 246 | O=C(NCc1ccccc1)NNC(=O)c1ccc(Cl)cc1
35 | 145 to 147 | O=[N+]([O-])c1ccccc1-c1ccc(Br)cc1[N+](=O)[O-]
36 | 208 to 210 | Cc1nc(N2C[C@H](C)N(Cc3ccc(F)cc3)C2=O)sc1C(=O)O
37 | 277 to 279 | CCCOc1ccc(C(=O)O)cc1-c1ccc(C#N)c(=O)[nH]1
38 | 121 to 123 | O=c1ccc(C(F)(F)F)cn1Cc1ccc([N+](=O)[O-])cc1
39 | 137 to 138 | COCOc1ccc(C(CS(=O)(=O)c2ccc(-c3ccc(C(F)(F)F)cc3)cc2)N(O)C=O)cc1 (stereo not drawn)
40 | 105 to 107 | COc1cc2c(cc1CCC#N)C(=O)CC(C)(C)O2
41 | 87 to 89 | Nc1ccc2oc3c(OC(F)F)ccc(C(=O)Nc4c(Cl)cncc4Cl)c3c2c1
42 | 267 to 269 | O=c1[nH]cnc2cc(OCc3ccccc3)ccc12
43 | 103 to 106 | c1ccc2c(OCCN3CCCCC3)c3ccccc3c(OCCN3CCCCC3)c2c1
44 | 160 | COc1c(O)ccc2c1OCC2=O
45 | 221 to 222 | CS(=O)(=O)c1ccc(-c2[nH]c3ccccc3c2-c2ccccc2)cc1
46 | 81 to 83 | CC(=O)Oc1ccc(C(=O)c2cccc(OC(C)=O)c2)cc1
47 | 139 to 141 | CC(C)(OCCN1C(=O)c2ccccc2C1=O)OCCN1C(=O)c2ccccc2C1=O
48 | 160 to 162 | COc1ccc2ccccc2c1/C=C/NC=O

Row | melting point [°C] | SMILES
49 | 130 to 131 | COc1cc2c(c(OC)c1)C1CCCCC1C(=O)C2 (stereo not drawn)
50 | 165 to 166 | CC(C)(C)c1cc(C(c2ccc(C#N)cc2)N2CCCCC2)c(O)c(C(C)(C)C)c1 (stereo not drawn)
51 | 103 to 104 | O=C(NCc1ccccc1)[C@@H]1CCCCN1
52 | 145 to 148 | CC1CCCN(c2cc(F)cc(C(=O)Nc3ccc(OCCN4CCOCC4)c4ccccc34)c2)C1 (stereo not drawn)
53 | 101 to 103 | COC(=O)CCCC(C)(C)c1cc(Cl)c(O)c(Cl)c1
54 | 193 to 195 | Nc1n[nH]c2ccc(OCc3ccccc3)cc12
55 | 190 to 191 | CC(=NNc1ccc(C(F)(F)F)cc1)C(=O)O
56 | 128 to 129 | CC(C)n1c2cc(C(F)(F)F)ccc2c2oc(C(=O)Cl)cc21
57 | 120 to 121 | O=C(O)c1ccc(OC2=C3N=C4CCCCC4=C3C(CCCCc3ccccc3)C=C2)o1 (stereo not drawn)
58 | 161 to 164 | CCOC(=O)c1ccc2cc(Cl)ccn2c1=O
59 | 165 to 167 | CC(=O)N1CCN(CC2CN=C(c3cc4cc(OCCCS(C)(=O)=O)cc(N(C)S(=O)(=O)c5ccccn5)c4[nH]3)S2)CC1 (stereo not drawn)
60 | 233 to 235 | COc1cc(OS(C)(=O)=O)ccc1-c1nc2cc3c(cc2[nH]1)NC(=O)C3(C)C
61 | 128 | CC(=O)C(=O)Oc1ccc(NCc2c(F)c(F)c(C(F)(F)F)c(F)c2F)cc1C(=O)O
62 | 112 to 114 | CCCC[C@H](NC(=O)[C@H](CC(C)C)NC(=O)c1ccc(F)c(C(F)(F)F)c1)C(=O)CSCc1ccco1
63 | 154 to 156 | COC(=O)c1cc(N=C2C=CC(=O)C=C2)c(F)c(-c2ccc(Cl)cc2)n1
64 | 118 to 119 | Clc1ccc2nc(-c3ccccn3)nn2c1
65 | 191 to 193 | COc1ccc2[nH]c3c(c2c1)CCC(NC(C)=O)C3 (stereo not drawn)
66 | 91 to 92 | NNc1c(F)c(F)c(C(F)(F)F)c(F)c1Cl
67 | 99 | CCCCCCCNC(=O)N(C)c1cccc(-c2ccc(C=C(OC)C(=O)O)cc2OCCCC)c1
68 | 176 | CC(C)(C)CC1NC(C(=O)NC2CCC(O)CC2)C(c2cccc(Cl)c2F)C12C(=O)Nc1cc(Cl)ccc12 (stereo not drawn)
69 | 176 to 178 | Cc1cn(N=Cc2cccnc2)c(=O)n1N=Cc1cccnc1
70 | 205 to 206 | O=C(Nc1cccnc1)N1CCN(c2cc(-c3cccc(F)c3)ncn2)CC1
71 | 168 to 170 | CCn1c(=O)c(C(=O)O)c(-c2ccccc2Cl)c2cc(C)c(C)cc21
72 | 161 | NC(=O)C(c1ccc(Cl)cc1)c1ccc(-n2ncc(=O)[nH]c2=O)cc1Cl (stereo not drawn)

Row | melting point [°C] | SMILES
73 | 133 to 135 | Clc1ccc(-c2cc(Cl)n3nccc3n2)cc1
74 | 181 to 183 | NC(=O)[C@H]1CN(c2cc(F)c(N3CCOCC3)c(F)c2)C(=O)O1
75 | 92 to 94 | Nc1ncc(-c2ccccc2)nc1SC1CCCC1
76 | 84 to 86 | CC1CCCN1CCN1CCN(CCCN2CCCCC2)C1=C(C#N)C#N (stereo not drawn)
77 | 192 to 196 | CCCCc1oc2ccccc2c1C(=O)NCc1ccc2c(-c3ccccc3)c(OCc3nnn[nH]3)ccc2c1
78 | 174 to 184 | CCOC(=O)c1ccc2n1Cc1ccccc1N(C(=O)c1ccc(NC(=O)c3ccc(Cl)cc3Cl)c(C)c1)C2
79 | 116 to 117 | Nc1cccn2nc(SCc3ccccc3)nc12
80 | 293 to 295 | Cc1nnc2ccc(-c3ccc([N+](=O)[O-])c(C(F)(F)F)c3)nn12
81 | 55 to 60 | Cc1cc(C(=O)CCc2cc(-c3ccc(C(F)(F)F)cc3)nn2CC2CC2)ccc1OC(C)(C)C(=O)O
82 | 98 to 100 | COC(=O)c1c(C)nc2c(c1N)c1ccccc1n2C
83 | 100 to 102 | Oc1cccc(CN2CCCC2)c1
84 | 198 | Cc1csc2c1-n1cccc1C2=NO
85 | 118 to 120 | CCCCCCCNC(=O)c1cnc2cccc(C)n2c1=O
86 | 145 to 146 | COc1ccc(C=CC(O)C(O)C=Cc2ccc(OC)cc2)cc1 (stereo not drawn)
87 | 106 to 109 | COCCOCCn1cc(C(=O)NCc2ccc(Cl)cc2)c(=O)c2cc(CN3CC[C@@H](O)C3)ccc21
88 | 166 to 170 | c1cc(OCc2ccc3ccccc3n2)cc(OCc2ccccc2-c2nnn[nH]2)c1
89 | 62 | NS(=O)(=O)CCCCCCl
90 | 226 to 228 | O=c1ccccn1[C@@H]1c2cc([N+](=O)[O-])ccc2OC(CF)(CF)[C@H]1O (relative stereo)
91 | 205 to 207 | CCCc1c(OCCCCCC(=O)c2ccc3cc(O)c(O)cc3c2)ccc(C(=O)O)c1O
92 | 189 to 190 | CC(C)n1c(=O)nc(-c2ccccc2)c2cc3c(cc21)OCO3
93 | 138 | CCOc1cc(C(=O)O)cc(N)c1-c1ccccc1
94 | 205 to 208 | O=C(O)CCSC(c1ccccc1)(c1ccccc1)c1ccccc1

Row | SMILES | melting point [°C]
95 | O=C1CCN2CCc3ccccc3C2(c2ccc(F)cc2)C1 (stereo not drawn) | 128 to 130
96 | CC1(Cl)CSC2C(NC(=O)Cc3ccccc3)C(=O)N2C1C(=O)OCc1ccc([N+](=O)[O-])cc1 (stereo not drawn) | 134 to 136
97 | CCC1CC2C3CCC4=CC(=O)CCC4=C3C=CC2(CC)C1O (stereo not drawn) | 184 to 187
98 | CN(C)Cc1nnc2n1-c1ccc(Cl)cc1C(c1ccccc1)=NC2 | 168 to 171
